Measurements reported in publication PMC7044277 (Nature Communications, 2020).
Several values for one entry are separate records, joined by “and”; a condition that tells them apart may be missing. Equal values may be shown once.

How the values were obtained:
Format in all cases: cell-based
320 non-olfactory GPCRs [1] = target: T1, 320 non-olfactory GPCRs (Homo sapiens, UniProt Q8NFJ6); conditions: receptor PK2; replicate values, Fig_4g
T1 construct: expressed in transfected cells; host or cells: HTLA cells
T1 sequence (Q8NFJ6 whole entry): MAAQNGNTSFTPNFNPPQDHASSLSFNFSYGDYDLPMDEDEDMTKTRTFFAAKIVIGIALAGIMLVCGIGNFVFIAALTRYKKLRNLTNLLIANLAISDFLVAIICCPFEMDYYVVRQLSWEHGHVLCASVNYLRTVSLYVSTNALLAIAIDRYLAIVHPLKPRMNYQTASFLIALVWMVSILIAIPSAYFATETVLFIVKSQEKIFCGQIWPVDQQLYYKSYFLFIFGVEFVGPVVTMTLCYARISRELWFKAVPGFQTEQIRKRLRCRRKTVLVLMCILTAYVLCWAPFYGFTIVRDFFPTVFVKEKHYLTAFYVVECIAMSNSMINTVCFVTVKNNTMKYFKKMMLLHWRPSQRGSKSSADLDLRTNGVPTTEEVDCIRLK

320 non-olfactory GPCRs [2] = target: T2, 320 non-olfactory GPCRs (Homo sapiens, UniProt P55085)
T2 construct: expressed in transfected cells; host or cells: HTLA cells
T2 sequence (P55085 26-397): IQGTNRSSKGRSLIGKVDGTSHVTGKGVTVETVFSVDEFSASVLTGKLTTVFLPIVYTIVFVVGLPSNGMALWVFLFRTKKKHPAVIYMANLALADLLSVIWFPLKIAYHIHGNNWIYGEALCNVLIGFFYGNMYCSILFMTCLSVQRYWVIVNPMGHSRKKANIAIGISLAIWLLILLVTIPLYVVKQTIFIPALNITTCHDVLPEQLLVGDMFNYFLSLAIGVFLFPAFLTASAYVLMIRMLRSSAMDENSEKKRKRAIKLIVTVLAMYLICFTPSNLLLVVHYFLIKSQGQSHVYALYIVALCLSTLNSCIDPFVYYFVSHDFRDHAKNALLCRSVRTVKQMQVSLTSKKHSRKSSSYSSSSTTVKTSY

320 non-olfactory GPCRs [3] = target: T3, 320 non-olfactory GPCRs (Homo sapiens, UniProt P48960)
T3 construct: expressed in transfected cells; host or cells: HTLA cells
T3 sequence (P48960 21-835): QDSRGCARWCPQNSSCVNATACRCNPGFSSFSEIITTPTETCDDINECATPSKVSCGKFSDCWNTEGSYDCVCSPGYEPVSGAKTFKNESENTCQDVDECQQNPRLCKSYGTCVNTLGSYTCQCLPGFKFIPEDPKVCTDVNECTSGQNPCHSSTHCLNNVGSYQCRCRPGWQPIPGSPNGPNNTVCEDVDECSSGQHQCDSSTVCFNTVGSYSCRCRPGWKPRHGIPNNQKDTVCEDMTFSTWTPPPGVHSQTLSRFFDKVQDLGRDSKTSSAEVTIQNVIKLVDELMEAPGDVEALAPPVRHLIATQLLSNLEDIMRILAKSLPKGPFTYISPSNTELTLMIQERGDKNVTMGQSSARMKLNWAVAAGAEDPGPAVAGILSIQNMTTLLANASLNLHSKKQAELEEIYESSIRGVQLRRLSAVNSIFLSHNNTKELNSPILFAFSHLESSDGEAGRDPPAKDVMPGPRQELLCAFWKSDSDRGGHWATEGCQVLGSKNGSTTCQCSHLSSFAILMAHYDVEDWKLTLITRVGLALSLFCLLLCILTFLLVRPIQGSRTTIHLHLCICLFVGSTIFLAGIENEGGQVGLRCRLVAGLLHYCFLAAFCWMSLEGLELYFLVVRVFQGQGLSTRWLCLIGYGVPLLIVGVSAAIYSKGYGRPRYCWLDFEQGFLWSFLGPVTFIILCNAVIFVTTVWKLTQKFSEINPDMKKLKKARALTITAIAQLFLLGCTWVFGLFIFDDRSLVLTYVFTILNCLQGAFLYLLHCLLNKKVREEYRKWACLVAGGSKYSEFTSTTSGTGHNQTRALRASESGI

320 non-olfactory GPCRs [4] = target: 320 non-olfactory GPCRs (Homo sapiens, UniProt P35372); conditions: receptor OPRM1; replicate values, Fig_4g
Sequence of 320 non-olfactory GPCRs (Homo sapiens, UniProt P35372) (P35372 whole entry): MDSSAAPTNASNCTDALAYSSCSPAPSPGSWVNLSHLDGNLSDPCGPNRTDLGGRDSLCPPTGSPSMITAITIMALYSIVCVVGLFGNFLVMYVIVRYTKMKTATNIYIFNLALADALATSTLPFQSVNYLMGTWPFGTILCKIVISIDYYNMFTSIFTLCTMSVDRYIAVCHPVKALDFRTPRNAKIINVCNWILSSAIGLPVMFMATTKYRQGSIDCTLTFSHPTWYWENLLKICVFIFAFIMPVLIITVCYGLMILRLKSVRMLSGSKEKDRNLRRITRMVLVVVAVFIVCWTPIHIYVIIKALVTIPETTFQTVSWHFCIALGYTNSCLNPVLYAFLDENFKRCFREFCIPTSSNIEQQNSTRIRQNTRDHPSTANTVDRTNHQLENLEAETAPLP
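Throughout, for Fold of Basal: compound tested at 1 µM final concentration.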
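Throughout, for GPCRome agonism screen response: fold over basal response of each receptor without drug.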

SMILES: CCOc1cccc2cc(C(C)NCC3(O)CCCCC3)oc12 (stereo not shown) [O4LE6]
- GPCRome agonism screen response (320 non-olfactory GPCRs [1]): 0.6601 and 1.45 and 1.515 and 1.156
- Fold of Basal (320 non-olfactory GPCRs [2]): 0.6754 and 1.05 and 1.156 and 0.8918
- Fold of Basal (320 non-olfactory GPCRs [3]): 0.9696 and 0.6986 and 0.95 and 0.7013
- GPCRome agonism screen response (320 non-olfactory GPCRs [4]): 0.5449 and 0.6973 and 1.0539 and 0.5973
